Measured values taken from ChEMBL document CHEMBL1201862, “PubChem BioAssay data set” (2004).
The source made the active and inactive calls.

Key:
[1] = biological target: Heat shock protein HSP 90-alpha (Homo sapiens, UniProt P07900); type: functional, organism-based
[2] = Fluorescence-based cell-based high throughput dose response assay for inhibitors of the interaction of nucleotide-binding oligomerization domain containing 2 (NOD2) and the receptor-interacting serine-threonine kinase 2 (RIPK2).; type: functional; details: Homo sapiens
[3] = control 3'UTR Renilla luciferase suppression, dose response, counter-screen for Shn3 inhibitor project, cell-based, Clone20-Shn3RL, cherry-picked (AID 624133); type: functional
[4] = nonselective inhibitors of cellular cAMP signaling, dose response, counter-screen for MC4R biased antagonist project, cell-based, TR-FRET cAMP detection (AID 602305); type: functional;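 also: U2OS cells stimulated with forskolin near its EC80 as the cAMP inducer; potency is for inhibition of forskolin-stimulated cAMP signaling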
[5] = biological target: Neurotensin receptor type 1 (Homo sapiens, UniProt P30989); type: functional;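 also: Image-based confirmatory dose-response assay measuring agonist activity at NTR1; NTR1-expressing U2OS osteosarcoma cells imaged for beta-arrestin GFP spot formation; agonist potency where compounds increase beta-arrestin recruitment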
Chain of Neurotensin receptor type 1 (P30989 whole entry): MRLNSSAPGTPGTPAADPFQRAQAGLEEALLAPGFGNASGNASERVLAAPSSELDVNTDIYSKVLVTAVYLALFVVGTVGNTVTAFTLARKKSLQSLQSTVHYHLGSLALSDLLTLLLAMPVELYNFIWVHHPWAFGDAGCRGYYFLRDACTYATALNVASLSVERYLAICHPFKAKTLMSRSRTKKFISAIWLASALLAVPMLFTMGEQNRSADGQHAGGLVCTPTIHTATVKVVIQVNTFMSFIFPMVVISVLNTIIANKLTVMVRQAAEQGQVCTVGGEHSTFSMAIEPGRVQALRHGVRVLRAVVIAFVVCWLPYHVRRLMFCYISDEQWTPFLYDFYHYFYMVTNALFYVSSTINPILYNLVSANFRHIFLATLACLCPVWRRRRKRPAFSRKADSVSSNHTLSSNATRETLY

Vero = assay: cells; type: functional; details: Chlorocebus sabaeus
[6] = HepG2 cell cytotoxicity, dose response, cytotoxicity control for Shn3 inhibitor project, CellTiter-Glo, cherry-picked (AID 624134); type: functional, cell-based
[7] = Shn3 3'UTR reporter inhibitors, dose response, cell-based, Clone20 osteoblasts, firefly luciferase, cherry-picked (AID 624132); type: functional;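 also: firefly luciferase luminescence from reporter carrying the Shn3 3'UTR in osteoblasts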
[8] = microbe, parasite or virus in culture; type: functional; details: Mycobacterium tuberculosis
Melanocortin receptor 4 = Melanocortin receptor 4 (Homo sapiens, UniProt P32245); assay: MC4R antagonist potency on cAMP, dose response, cell-based, TR-FRET, biased antagonists (AID 602298); type: functional;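 also: antagonist potency against agonist-stimulated cAMP production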
Chain of Melanocortin receptor 4 (P32245 whole entry): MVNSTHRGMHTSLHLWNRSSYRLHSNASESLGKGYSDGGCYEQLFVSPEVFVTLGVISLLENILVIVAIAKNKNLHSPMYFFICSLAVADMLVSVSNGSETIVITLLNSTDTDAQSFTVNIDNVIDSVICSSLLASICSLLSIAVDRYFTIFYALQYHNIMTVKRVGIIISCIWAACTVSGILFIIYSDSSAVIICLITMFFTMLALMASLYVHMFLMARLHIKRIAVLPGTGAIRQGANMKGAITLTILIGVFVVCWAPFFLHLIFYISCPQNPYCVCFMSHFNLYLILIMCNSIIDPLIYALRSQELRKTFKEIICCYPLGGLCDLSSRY

Beta Lactamase = Beta Lactamase (Pseudomonas aeruginosa, UniProt Q932Y6); assay: beta-lactamase reporter inhibitor potency, dose response, artefact control for NOD2-RIPK2 interaction inhibitor project, BLA reporter cells, FRET fluorescence (AID 651552); type: functional, cell-based
[9] = biological target: Glucose-6-phosphate 1-dehydrogenase (Homo sapiens, UniProt P11413); assay: human G6PD enzyme inhibitors, dose response, selectivity assay for P. falciparum G6PD inhibitor project, biochemical, fluorescence (AID 504792); type: functional
Chain of Glucose-6-phosphate 1-dehydrogenase (P11413 whole entry): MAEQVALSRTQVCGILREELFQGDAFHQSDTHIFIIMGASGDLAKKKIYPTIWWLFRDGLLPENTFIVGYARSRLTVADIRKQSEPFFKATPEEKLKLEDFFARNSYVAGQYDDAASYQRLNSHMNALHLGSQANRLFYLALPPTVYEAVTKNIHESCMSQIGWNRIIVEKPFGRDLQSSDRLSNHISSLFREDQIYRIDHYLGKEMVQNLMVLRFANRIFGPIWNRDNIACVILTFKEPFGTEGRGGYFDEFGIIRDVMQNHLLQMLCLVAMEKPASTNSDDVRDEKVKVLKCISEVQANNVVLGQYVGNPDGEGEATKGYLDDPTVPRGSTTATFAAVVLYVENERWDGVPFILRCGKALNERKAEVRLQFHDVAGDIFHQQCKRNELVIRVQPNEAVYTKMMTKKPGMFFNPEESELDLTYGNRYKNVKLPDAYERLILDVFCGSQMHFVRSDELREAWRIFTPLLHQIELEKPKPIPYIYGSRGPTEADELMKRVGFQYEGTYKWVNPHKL

[10] = biological target: DNA (cytosine-5)-methyltransferase 1 (Homo sapiens, UniProt P26358); assay: DNMT1 methyltransferase inhibitors, confirmation, biochemical, fluorescent molecular beacon (AID 602386); type: functional
Chain of DNA (cytosine-5)-methyltransferase 1 (P26358 whole entry): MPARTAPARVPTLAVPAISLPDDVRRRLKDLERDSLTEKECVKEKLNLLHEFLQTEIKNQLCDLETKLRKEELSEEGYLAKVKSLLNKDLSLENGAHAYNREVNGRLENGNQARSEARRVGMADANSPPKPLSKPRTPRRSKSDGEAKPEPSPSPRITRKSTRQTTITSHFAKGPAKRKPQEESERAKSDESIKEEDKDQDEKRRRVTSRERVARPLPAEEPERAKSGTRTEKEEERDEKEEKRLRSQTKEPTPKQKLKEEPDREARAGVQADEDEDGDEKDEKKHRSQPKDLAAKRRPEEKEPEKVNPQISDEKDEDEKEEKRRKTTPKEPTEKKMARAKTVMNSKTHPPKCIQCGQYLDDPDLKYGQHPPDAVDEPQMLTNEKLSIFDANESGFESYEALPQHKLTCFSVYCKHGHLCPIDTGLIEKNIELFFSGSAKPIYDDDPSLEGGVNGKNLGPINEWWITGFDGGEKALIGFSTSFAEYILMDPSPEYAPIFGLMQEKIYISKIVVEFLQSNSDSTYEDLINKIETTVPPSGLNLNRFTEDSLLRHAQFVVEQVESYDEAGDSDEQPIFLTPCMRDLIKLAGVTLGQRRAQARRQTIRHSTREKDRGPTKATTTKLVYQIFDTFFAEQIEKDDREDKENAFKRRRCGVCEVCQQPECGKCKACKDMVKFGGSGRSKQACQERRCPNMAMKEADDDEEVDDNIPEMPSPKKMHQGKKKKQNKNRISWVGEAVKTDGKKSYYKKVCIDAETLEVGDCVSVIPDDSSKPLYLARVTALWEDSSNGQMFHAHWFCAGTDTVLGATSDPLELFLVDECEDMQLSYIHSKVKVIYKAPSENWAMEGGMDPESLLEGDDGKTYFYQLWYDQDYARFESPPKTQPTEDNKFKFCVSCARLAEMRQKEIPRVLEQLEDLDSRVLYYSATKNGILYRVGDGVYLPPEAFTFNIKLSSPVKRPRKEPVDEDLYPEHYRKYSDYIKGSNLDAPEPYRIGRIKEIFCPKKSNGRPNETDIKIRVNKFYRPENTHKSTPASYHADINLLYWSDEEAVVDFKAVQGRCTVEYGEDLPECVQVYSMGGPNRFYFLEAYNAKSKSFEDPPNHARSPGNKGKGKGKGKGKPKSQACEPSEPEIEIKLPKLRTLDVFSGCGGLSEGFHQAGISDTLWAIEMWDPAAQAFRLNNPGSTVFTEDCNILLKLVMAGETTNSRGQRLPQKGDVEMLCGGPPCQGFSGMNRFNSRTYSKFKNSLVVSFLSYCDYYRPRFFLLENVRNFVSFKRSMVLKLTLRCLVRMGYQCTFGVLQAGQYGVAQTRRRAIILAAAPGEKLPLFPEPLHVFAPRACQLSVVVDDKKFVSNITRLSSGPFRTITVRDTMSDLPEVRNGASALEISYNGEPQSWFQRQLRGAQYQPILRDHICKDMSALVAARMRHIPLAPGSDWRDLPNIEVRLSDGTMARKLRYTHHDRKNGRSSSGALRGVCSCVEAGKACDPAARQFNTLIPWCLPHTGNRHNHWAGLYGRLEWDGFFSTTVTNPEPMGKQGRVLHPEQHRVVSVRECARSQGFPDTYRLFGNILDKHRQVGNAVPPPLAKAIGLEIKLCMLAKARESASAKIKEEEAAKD

[11] = biological target: T1, High affinity choline transporter 1 (Homo sapiens, UniProt Q9GZV3); assay: CHT inhibitors, dose response, cell-based, 5-point CRC, membrane potential dye (AID 504840); type: functional
T1 sequence (Q9GZV3 whole entry): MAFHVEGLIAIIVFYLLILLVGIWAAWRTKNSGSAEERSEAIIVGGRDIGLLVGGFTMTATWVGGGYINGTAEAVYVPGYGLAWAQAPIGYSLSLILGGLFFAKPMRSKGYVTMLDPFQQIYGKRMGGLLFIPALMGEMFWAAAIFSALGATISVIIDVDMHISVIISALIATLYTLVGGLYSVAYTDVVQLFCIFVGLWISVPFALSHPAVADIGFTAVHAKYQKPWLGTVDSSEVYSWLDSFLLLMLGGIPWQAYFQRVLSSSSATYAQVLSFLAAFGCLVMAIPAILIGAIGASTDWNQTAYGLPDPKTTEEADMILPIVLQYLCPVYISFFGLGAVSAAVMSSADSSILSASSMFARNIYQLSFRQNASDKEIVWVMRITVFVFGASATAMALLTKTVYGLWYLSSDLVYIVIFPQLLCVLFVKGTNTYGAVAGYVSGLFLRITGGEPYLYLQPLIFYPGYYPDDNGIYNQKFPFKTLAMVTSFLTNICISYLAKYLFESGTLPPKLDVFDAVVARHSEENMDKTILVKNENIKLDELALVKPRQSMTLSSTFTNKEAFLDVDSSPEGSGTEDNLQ

[12] = biological target: T1, High affinity choline transporter 1; assay: CHT inhibitors, dose response, cell-based, 10-point CRC, membrane potential dye (AID 588401); type: functional;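 also: membrane potential dye fluorescence of choline-evoked depolarization via CHT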
[13] = HEK293T cell cytotoxicity, dose response, cytotoxicity control for HIV Vif inhibitor project, cherry-picks (AID 652208); type: functional, cell-based
Beta-lactamase [14] = biological target: Beta-lactamase (Salmonella choleraesuis (strain SC-B67), UniProt Q5J463); assay: Epi-absorbance-based counterscreen for selective VIM-2 inhibitors: dose response biochemical high throughput screening assay to identify inhibitors of TEM-1 serine-beta-lactamase.
Chain of Beta-lactamase (Salmonella choleraesuis (strain SC-B67), UniProt Q5J463) (Q5J463 whole entry): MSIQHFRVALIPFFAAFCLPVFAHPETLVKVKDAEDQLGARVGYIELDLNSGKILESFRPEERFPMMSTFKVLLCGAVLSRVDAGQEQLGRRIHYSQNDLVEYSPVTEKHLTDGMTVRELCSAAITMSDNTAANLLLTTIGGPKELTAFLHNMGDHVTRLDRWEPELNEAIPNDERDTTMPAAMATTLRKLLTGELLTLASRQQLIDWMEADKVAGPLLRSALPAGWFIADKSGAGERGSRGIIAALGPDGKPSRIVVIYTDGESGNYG

Beta-lactamase [15] = biological target: T2, Beta-lactamase (Pseudomonas aeruginosa, UniProt Q79MP6); assay: IMP-1 metallo-beta-lactamase inhibitors, dose response, selectivity assay for VIM-2 inhibitor project, biochemical, epi-absorbance (AID 1920)
T2 sequence (Q79MP6 whole entry): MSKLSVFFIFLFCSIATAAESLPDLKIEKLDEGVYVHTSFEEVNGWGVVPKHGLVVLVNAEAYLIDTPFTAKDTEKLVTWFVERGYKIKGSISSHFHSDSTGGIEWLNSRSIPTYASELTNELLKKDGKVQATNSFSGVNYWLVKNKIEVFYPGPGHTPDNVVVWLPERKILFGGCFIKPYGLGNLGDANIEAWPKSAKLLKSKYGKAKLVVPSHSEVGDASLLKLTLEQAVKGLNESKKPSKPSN

Beta-lactamase [16] = biological target: T2, Beta-lactamase; assay: […] counterscreen for selective VIM-2 inhibitors: dose response biochemical high throughput screening assay to identify inhibitors of IMP-1 metallo-beta-lactamase.
H9c2 = assay: cells; type: functional, cell-based; details: Rattus norvegicus, H9c2, Myocardium;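 also: confirmatory concentration-response retest of ultra-high-throughput screening hits for modulation of myocardial damage; cell death induced by hydrogen peroxide oxidative stress; compound pretreatment for 60 min then peroxide exposure for 2 h; potency is for protecting the cells against peroxide damage rather than for killing them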
[17] = biological target: T3, Small ubiquitin-related modifier 1 (Homo sapiens, UniProt P63165); assay: inhibitors of SUMO1 peptide binding, dose response, biochemical, fluorescence polarization, uHTS hits (AID 624382); type: functional; details: read-out: IC50_Mean
T3 sequence (P63165 whole entry): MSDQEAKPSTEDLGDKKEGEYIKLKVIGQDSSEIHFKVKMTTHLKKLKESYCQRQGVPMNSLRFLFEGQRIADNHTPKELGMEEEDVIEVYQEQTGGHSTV

[18] = biological target: T3, Small ubiquitin-related modifier 1; assay: inhibitors of SUMO1 partner interactions, dose response, biochemical, FRET (AID 624383); type: functional; details: read-out: IC50_Mean
[19] = biological target: T4, Small ubiquitin-related modifier 2 (Homo sapiens, UniProt P61956); assay: SUMO2–SIM peptide binding inhibitors, dose response, selectivity assay for SUMO1 interaction inhibitor project, biochemical, fluorescence polarization, uHTS hits (AID 624385); type: functional; details: read-out: IC50_Mean
T4 sequence (P61956 whole entry): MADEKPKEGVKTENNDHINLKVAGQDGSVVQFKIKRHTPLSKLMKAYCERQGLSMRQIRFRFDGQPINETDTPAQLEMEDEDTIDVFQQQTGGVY

[20] = biological target: T4, Small ubiquitin-related modifier 2; assay: inhibitors of SUMO2 protein-protein interaction, dose response, selectivity assay for SUMO1 interaction inhibitor project, biochemical, FRET, human SUMO2, uHTS hits (AID 624384); type: functional; details: read-out: IC50_Mean
[21] = biological target: Long-chain-fatty-acid--AMP ligase FadD28 (Mycobacterium tuberculosis, UniProt P9WQ59); assay: Fluorescence polarization aasay to screen for inhibitors that compete for the binding of FadD28 to a bisubstrate Measured in Biochemical System Using Plate Reader - 2147-01_Inhibitor_Dose_CherryPick_Activity.; type: functional, Mycobacterium tuberculosis H37Rv
Chain of Long-chain-fatty-acid--AMP ligase FadD28 (P9WQ59 whole entry): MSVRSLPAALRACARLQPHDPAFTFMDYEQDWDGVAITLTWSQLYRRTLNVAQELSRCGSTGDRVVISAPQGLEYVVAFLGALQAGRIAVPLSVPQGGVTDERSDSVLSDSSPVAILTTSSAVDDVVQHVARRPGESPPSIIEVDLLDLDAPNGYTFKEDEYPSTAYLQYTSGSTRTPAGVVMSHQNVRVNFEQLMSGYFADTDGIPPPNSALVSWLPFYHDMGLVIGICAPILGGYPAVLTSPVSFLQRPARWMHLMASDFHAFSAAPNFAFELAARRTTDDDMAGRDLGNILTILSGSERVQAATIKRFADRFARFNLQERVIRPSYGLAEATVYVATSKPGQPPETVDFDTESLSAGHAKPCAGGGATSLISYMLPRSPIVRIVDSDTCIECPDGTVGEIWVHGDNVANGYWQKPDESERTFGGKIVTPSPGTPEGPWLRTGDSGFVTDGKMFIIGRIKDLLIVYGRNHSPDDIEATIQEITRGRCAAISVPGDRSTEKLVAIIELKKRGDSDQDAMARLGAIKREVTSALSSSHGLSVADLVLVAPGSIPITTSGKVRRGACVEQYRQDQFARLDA

[22] = biological target: ADP-ribosylation factor GTPase-activating protein 1 (Rattus norvegicus, UniProt Q62848); assay: Fluorescence polarization-based biochemical high throughput dose response screening assay to identify inhibitors of ADP-ribosylation factor GTPase activating protein 1 (ARFGAP1).; type: functional
Chain of ADP-ribosylation factor GTPase-activating protein 1 (Q62848 whole entry, the tested form may be a part): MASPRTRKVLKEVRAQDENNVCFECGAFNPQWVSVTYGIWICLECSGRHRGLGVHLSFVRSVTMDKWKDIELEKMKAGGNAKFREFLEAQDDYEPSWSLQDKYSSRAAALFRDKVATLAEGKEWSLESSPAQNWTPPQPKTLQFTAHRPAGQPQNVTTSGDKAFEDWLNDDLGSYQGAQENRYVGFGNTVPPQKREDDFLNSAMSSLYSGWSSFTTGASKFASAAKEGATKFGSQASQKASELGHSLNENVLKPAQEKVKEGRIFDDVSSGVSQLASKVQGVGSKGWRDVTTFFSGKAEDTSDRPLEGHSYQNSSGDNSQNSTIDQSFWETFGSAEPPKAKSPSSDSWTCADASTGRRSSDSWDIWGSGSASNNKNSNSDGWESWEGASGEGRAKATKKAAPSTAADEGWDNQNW

[23] = biological target: Arf-GAP with SH3 domain, ANK repeat and PH domain-containing protein 1 (Homo sapiens, UniProt Q9ULH1); type: functional;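 also: biochemical fluorescence polarization dose–response screen measuring inhibition of ASAP1; ASAP1 GAP domain stimulating GTP hydrolysis by truncated human ARF1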
[24] = HeLa cell cytotoxicity, dose response, cytotoxicity control for MgcRacGAP inhibitor project (AID 624300); type: functional
[25] = biological target: T5, DNA repair protein RAD52 homolog (Homo sapiens, UniProt P43351); type: functional, biochemical
T5 sequence (P43351 whole entry): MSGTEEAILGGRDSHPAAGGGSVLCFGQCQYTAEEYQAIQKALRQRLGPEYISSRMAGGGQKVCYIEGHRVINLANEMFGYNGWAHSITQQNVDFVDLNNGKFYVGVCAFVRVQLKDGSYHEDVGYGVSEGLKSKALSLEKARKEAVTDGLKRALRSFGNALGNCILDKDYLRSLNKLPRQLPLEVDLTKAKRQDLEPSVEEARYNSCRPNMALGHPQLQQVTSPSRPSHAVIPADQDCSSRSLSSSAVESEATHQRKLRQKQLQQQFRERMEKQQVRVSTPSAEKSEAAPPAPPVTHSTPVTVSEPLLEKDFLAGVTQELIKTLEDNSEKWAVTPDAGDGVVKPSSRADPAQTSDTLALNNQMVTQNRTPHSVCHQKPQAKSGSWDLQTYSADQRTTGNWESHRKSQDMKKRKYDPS

[26] = biological target: T6, Rac GTPase-activating protein 1 (Homo sapiens, UniProt Q9H0H5); assay: MgcRacGAP GTPase-activating activity inhibitors, confirmation, biochemical, ADP Hunter fluorescence, primary and confirmatory (AID 624330); type: functional
T6 sequence (Q9H0H5 whole entry): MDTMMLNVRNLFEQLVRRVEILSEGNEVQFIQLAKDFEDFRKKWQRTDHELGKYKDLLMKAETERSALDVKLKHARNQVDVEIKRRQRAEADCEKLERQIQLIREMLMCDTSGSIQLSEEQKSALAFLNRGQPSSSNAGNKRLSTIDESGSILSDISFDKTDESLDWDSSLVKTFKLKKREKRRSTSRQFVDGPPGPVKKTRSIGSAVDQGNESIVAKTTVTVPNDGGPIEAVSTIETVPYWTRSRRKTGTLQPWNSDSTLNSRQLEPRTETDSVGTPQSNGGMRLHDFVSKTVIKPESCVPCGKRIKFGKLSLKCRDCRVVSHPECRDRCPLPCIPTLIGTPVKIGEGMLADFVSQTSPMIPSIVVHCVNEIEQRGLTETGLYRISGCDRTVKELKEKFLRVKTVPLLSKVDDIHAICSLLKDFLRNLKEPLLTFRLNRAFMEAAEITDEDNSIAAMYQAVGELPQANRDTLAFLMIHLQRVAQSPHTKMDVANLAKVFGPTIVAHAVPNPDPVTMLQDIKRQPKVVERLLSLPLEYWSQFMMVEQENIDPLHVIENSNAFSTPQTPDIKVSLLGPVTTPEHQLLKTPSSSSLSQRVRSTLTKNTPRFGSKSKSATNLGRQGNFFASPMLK

[27] = biological target: Ras and Rab interactor 1/Tyrosine-protein kinase ABL1 (Homo sapiens, UniProt P00519+Q13671); type: functional;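 also: biochemical TR-FRET dose-response test measuring inhibition of binding between Rin1 and Abl proteins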
Protein Wnt-3a = Protein Wnt-3a (Mus musculus, UniProt P27467); assay: Wnt3a-driven reporter signaling inhibition, dose response, selectivity assay for Gli-SUFU antagonist project, Wnt-LIGHT cells, luminescence (AID 651570); type: functional; details: read-out: IC50_Mean;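 also: Wnt-LIGHT reporter cells stimulated with conditioned medium from Wnt3a-producing cells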
Chain of Protein Wnt-3a (P27467 whole entry): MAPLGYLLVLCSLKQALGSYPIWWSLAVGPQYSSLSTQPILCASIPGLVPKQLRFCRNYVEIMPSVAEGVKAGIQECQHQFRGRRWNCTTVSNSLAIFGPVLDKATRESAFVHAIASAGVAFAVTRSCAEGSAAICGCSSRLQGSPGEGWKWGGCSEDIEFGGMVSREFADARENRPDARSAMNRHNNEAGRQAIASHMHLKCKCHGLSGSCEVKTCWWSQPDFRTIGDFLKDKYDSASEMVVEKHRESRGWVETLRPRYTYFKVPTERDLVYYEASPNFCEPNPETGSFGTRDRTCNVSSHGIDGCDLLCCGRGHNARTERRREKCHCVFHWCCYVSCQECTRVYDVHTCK

[28] = biological target: T7, Low molecular weight phosphotyrosine protein phosphatase (Homo sapiens, UniProt P24666); type: functional; details: read-out: IC50_Mean
T7 sequence (P24666 whole entry): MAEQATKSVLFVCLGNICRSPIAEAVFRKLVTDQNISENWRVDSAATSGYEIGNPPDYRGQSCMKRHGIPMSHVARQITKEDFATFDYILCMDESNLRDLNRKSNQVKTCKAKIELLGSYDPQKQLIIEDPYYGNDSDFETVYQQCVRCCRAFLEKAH

[29] = biological target: T7, Low molecular weight phosphotyrosine protein phosphatase; type: functional; details: read-out: IC50_Mean; remark: listed apart in the source
Interleukin-8 = Interleukin-8 (Homo sapiens, UniProt P10145); assay: Dose Response confirmation of uHTS small molecule hits for cystic fibrosis induced NFkb Inhibitors in a PAF-induced IL8 counterscreen.; type: functional; details: read-out: IC50_Mean
[30] = biological target: T8, Ubiquitin-conjugating enzyme E2 N (Homo sapiens, UniProt P61088); type: functional;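 also: Dose-response confirmation in a TR-FRET assay detecting UBC13-driven polyubiquitin chain formation, inhibition measured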
T8 sequence (P61088 whole entry): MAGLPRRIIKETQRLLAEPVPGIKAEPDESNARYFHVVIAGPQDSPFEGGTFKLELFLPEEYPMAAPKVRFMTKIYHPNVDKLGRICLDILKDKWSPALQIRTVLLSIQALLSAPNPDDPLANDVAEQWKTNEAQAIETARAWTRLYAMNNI

O=C(c1ccc(Br)cc1)C(CN1CCOCC1)c1ccccc1 (stereo unspecified)
AC50 [1]: 2.85 µM (active) | IC50 [2]: 7.78 µM (active) | AC50 [3]: 10.6 µM (active) | IC50 [4]: > 64.6 µM (inactive) | EC50 [5]: 33 µM (inactive) | CC50 (Vero): > 25 µM (active) | AC50 [6]: 21.6 µM (active) | AC50 [7]: 9.4 µM (active) | CC50 [8]: > 40 µM (active) | IC50 (Melanocortin receptor 4): > 64.6 µM (inactive)

Clc1nssc1=Nc1nncs1
IC50 [2]: 6.62 µM (active) | IC50 (Beta Lactamase): 49.8 µM (inactive) | IC50 [9]: 42.3 µM (inactive)

CCCCCCCCc1nnc(NC(=O)c2ccco2)s1
IC50 [10]: 42.4 µM (active)

Cc1ccc(NC(=O)CN2C(=O)NC3(CCc4ccccc43)C2=O)cc1Cl (stereo unspecified)
IC50 [11]: 9.3 µM (active) | IC50 [12]: 11.2 µM (active)

CC(=O)Nc1ccc(NC(=O)COc2ccccc2C(=O)Nc2cccc(Cl)c2Cl)cc1
AC50 [13]: 8.25 µM (active)

COc1cc(OC)cc(Oc2ccc(S(=O)(=O)N3CCCCC3)cc2[N+](=O)[O-])c1
IC50 [4]: > 64.6 µM (inactive) | IC50 (Melanocortin receptor 4): > 64.6 µM (inactive)

COc1cc(NS(=O)(=O)c2ccc(NC(=O)c3ccc(Cl)cc3Cl)cc2)ncn1
IC50 [11]: 4.47 µM (active) | IC50 [12]: 9.46 µM (active)

Cc1ccccc1C(=O)Nc1nnc(SCC(=O)NCc2ccco2)s1
IC50 (Beta-lactamase [14]): > 59.6 µM (inactive) | IC50 (Beta-lactamase [15]): > 59.6 µM (inactive) | IC50 (Beta-lactamase [16]): > 59.6 µM (inactive)

Nc1cc2nc(O)c3ccccc3c2cc1[N+](=O)[O-]
IC50 (H9c2): > 79 µM (inactive) | IC50 [17]: 1.02 µM (active) | IC50 [18]: 51.8 µM (inactive) | IC50 [19]: 45.7 µM (inactive) | IC50 [20]: > 66 µM (inactive)

CCn1ncc(Br)c1C(=O)Nc1ccc(OC(F)(F)F)cc1
AC50 [21]: 52 µM (active)

CC(=O)c1cccc(NC(=O)c2cccc3c(-c4cccnc4)coc23)c1
IC50 [22]: 129 µM (inactive) | IC50 [23]: 79.4 µM (inactive)

COc1cccc2c3cccc(OC)c3c3[nH]cnc3c12
CC50 [24]: 43.9 µM (active) | AC50 [25]: 513 nM (active) | IC50 [26]: 82.8 µM (active) | IC50 [27]: 15.8 µM (inactive)

C/C(=N\NC(=O)C(=O)Nc1ccc(C)c(Cl)c1)c1ccncc1
IC50 (Protein Wnt-3a): 909 nM (active)

COCCNc1nc(NCc2ccc(C)cc2C)c2sccc2n1
IC50 [28]: 13.8 µM (active) | IC50 [29]: 15.6 µM (active)

CN(C)c1ccnc2sc3c(=O)n(Cc4ccccc4)cnc3c12
IC50 (Interleukin-8): 12.2 µM (inactive) | IC50 [30]: > 20 µM (inactive)
